# In patent US5244795A, “Processes for preparing cholesterol lowering compounds” (Merck & Co., Inc., priority 1992, dated 1993):
# How the values were obtained:
# Assay in all cases: FISP disc diffusion assay
# Type in all cases: cell-based
# Parameters in all cases: key: F: clear zone, fuzzy edges; S: slightly hazy zone (some growth observed throughout zone); H: hazy zone (considerable growth observed throughout zone); V: very hazy zone (zone of inhibition is barely discernable); R: zone displays a ring of resistant growth; no qualifier: clear zone throughout, sharp edges
# Settings in all cases: 250 μg/ml in CH2Cl2
# [1] = system: Verticillium serrae
# Text: (§1) The FISP assay employs disc diffusion susceptibility testing methods to generate a spectrum of activity against a panel of representative yeasts, filamentous fungi and bacteria.
# (§2) The filamentous fungi used in the assay were Penicillium sp. Aspergillus niger, Trichoderma sp., Phoma sp., Trichoderma lignorum, Fusarium oxysporum, Ustilago maydis, Ceratocystis ulmi, Alternaria soloni, Verticillium serrae, Botrytis allii, Scopulariopsis communis, Cephalosporium sp., Cercospora beticola, Rhizomucor miehei, Aspergillus flavus and Aspergillus fumigatus.
# (§3) For carrying out the assay, seeded assay plates are prepared in the following manner according to the type of assay strain.
# (§4) Inocula for filamentous fungi are prepared by scraping the surface of stock plates maintained on potato dextrose agar with a moistened sterile dacron swab. The spores and mycelia are then suspended in 10 milliliters of sterile potato dextrose broth and adjusted to 65 percent transmission at 660 nm.
# (§5) Assay plates for the yeasts and filamentous fungi are prepared by diluting the inoculum into appropriate molten agar medium, cooled to 45° C. to obtain a final concentration of 4 percent.
# (§6) The seeded agar media thus prepared are dispensed into petri dishes for assays (11 ml per dish).
# (§7) The samples to be tested for production of antifungal agent are applied to 6.2 mm filter paper discs (25 μl/disc) and air dried at 24° C. When the sample to be tested is crude broth, it may be centrifuged prior to application. The discs bearing the material to be tested are then applied employing sterile conditions to the seeded assay plates. The assay plates are then incubated at either 28° C. or 37° C. for 24 hours. In one of the assays for Bacillus subtilis, the sample is applied to a disc previously impregnated with 4M potassium chloride at 25 μl/disc and then air dried.
# (§8) Following incubation, the inhibition zones are measured and recorded. The measurements are made from the extreme edge where growth differs from the background zone. The zones are noted as to appearance as fuzzy edge and clear center, hazy throughout, slightly hazy, very hazy or ringed.
# (§9) FISP data is reported as the diameter (in mm.) of the zone of inhibition of growth in agar diffusion assays. The zone is determined by measuring growth that differs from the background lawn. A qualifier is also added to describe the zone quality as listed below: no qualifier: clear zone throughout, sharp edges
# [2] = system: Aspergillus fumigatus
# Text: as §1, §2, §3, §4, §5, §6, §7, §8, §9
# [3] = system: Rhizomucor miehei
# Text: as §1, §2, §3, §4, §5, §6, §7, §8, §9
# [4] = system: Botrytis allii
# Text: as §1, §2, §3, §4, §5, §6, §7, §8, §9
# [5] = system: Scopulariopsis communis
# Text: as §1, §2, §3, §4, §5, §6, §7, §8, §9
# [6] = system: Cercospora beticola
# Text: as §1, §2, §3, §4, §5, §6, §7, §8, §9
# [7] = system: Phoma sp.
# Text: as §1, §2, §3, §4, §5, §6, §7, §8, §9
# [8] = system: Ceratocystis ulmi
# Text: as §1, §2, §3, §4, §5, §6, §7, §8, §9
# [9] = system: Trichoderma sp.
# Text: as §1, §2, §3, §4, §5, §6, §7, §8, §9
# [10] = system: Cephalosporium sp.
# Text: as §1, §2, §3, §4, §5, §6, §7, §8, §9
# [11] = system: Penicillium sp.
# Text: as §1, §2, §3, §4, §5, §6, §7, §8, §9
# [12] = system: Cryptococcus albidus
# Text: as §1
# (§10) The yeasts employed in the assay are Saccharomyces cerevisiae, Candida albicans, Candida tropicalis, Candida rugosa, Brettanomyces bruxellensis, Torulospora hansenii, Candida guilliermondi, Candida pseudotropicalis, Torulopsis glabrata, Cryptococcus albidus, Cryptococcus laurentii and Kluyveromyces fragilis.
# as §3
# (§11) Inocula for yeasts and bacterial strains are prepared from overnight broth cultures then diluted into potato dextrose agar to a final concentration of either 40 percent or 70 percent transmission at 660 nm.
# as §5, §6, §7, §8, §9
# [13] = system: Candida pseudotropicalis
# Text: as §1, §10, §3, §11, §5, §6, §7, §8, §9
structure (smiles),measurement,setting,value
CC(/C=C/C=C(\C)C(O)C(C)C(=O)O[C@H]1C[C@H](C)C=C2C=C[C@@]3(C)O[C@@H](O)CC(=O)[C@]3(C)[C@H]21)=C\C=C\C(=O)O (stereo partly shown) [Compound A],zone quality qualifier,[1],S
same,zone quality qualifier,[2],S
same,zone quality qualifier,[3],H
same,zone quality qualifier,[4],S
same,zone quality qualifier,[5],F
same,zone quality qualifier,[6],S
same,zone quality qualifier,[7],S
same,zone quality qualifier,[8],V
same,zone quality qualifier,[9],S
same,zone quality qualifier,[10],F
same,zone quality qualifier,[11],H
same,zone quality qualifier,[12],V
same,zone quality qualifier,[13],V
